Laboratory results reported in US20240239757A1, “PHTHALAZINONE DERIVATES AS NLRP3 INFLAMMASOME INHIBITORS” (JANSSEN PHARMACEUTICA NV, priority 2021, published 2024).

How the values were obtained:
IL-1β = experiment: PBMC assay, IL-1β; type: cell-based; conditions: human PBMCs, 30 min with compound, then 100 ng/ml LPS for 6 hrs, supernatant analysed via MSD technology, read-out: IL1β IC50
Experimental: The activity of a compound according to the present invention can be assessed by in vitro methods.
(§1) Peripheral venous blood was collected from healthy individuals and human peripheral blood mononuclear cells (PBMCs) were isolated from blood by Ficoll-Histopaque (Sigma-Aldrich, A0561) density gradient centrifugation. After isolation, PBMCs were stored in liquid nitrogen for later use. Upon thawing, PBMC cell viability was determined in growth medium (RPMI media supplemented with 10% fetal bovine serum, 1% Pen-Strep and 1% L-glutamine). Compounds were spotted in a 1:3 serial dilution in DMSO and diluted to the final concentration in 30 μl medium in 96 well plates (Falcon, 353072). PBMCs were added at a density of 7.5×10^4 cells per well and incubated for 30 min in a 5% CO2 incubator at 37° C. LPS stimulation was performed by addition of 100 ng/ml LPS (final concentration, Invivogen, tlrl-smlps) for 6 hrs followed by collection of cellular supernatant and the analysis of IL-1β (μM) and TNF cytokines levels (μM) via MSD technology according to manufacturers' guidelines (MSD, K151A0H).
(§2) The IC50 values (for IL-1β) and EC50 values (TNF) were obtained on compounds of formula (I)/examples, and are depicted in the following table: […]

TNF = experiment: PBMC assay, TNF; type: cell-based; conditions: human PBMCs, 30 min with compound, then 100 ng/ml LPS for 6 hrs, supernatant analysed via MSD technology
Experimental: as §1, §2

| SMILES | IC50 (IL-1β) [µM] | EC50 (TNF) [µM] | melting point [°C] |
| --- | --- | --- | --- |
| CN(C)c1nn(CC(=O)Nc2ccc3nncn3c2)c(=O)c2ccc(C(F)(F)F)cc12 [Compound 1H, N-([1,2,4]triazolo[4,3-a]pyridin-6-yl)-2-(4-(dimethylamino)-1-oxo-6-(trifluoromethyl)phthalazin-2(1H)-yl)acetamide] | 0.08 | > 10 |  |
| CN(C)c1nn(CC(=O)Nc2ccncn2)c(=O)c2ccc(C(F)(F)F)cc12 [Compound 1I] | 0.17 | > 10 | 238.3 |
| CN(C)c1nn(CC(=O)N[C@H]2C[C@@](C)(O)C2)c(=O)c2ccc(C(F)(F)F)cc12 [Compound 1J] | 0.07 | > 10 | 184.8 |
| CN(C)c1nn(CC(=O)Nc2ccc(=O)n(C)n2)c(=O)c2ccc(C(F)(F)F)cc12 [Compound 1K] | 0.36 | > 10 | 241.8 |
| CN(C)c1nn(CC(=O)Nc2ccc3nncn3n2)c(=O)c2ccc(C(F)(F)F)cc12 [Compound 2A, N-([1,2,4]triazolo[4,3-b]pyridazin-6-yl)-2-(4-(dimethylamino)-1-oxo-6-(trifluoromethyl)phthalazin-2(1H)-yl)acetamide] | 0.07 | > 10 |  |
| O=C(Cn1nc(N2CC(F)(F)C2)c2cc(C(F)(F)F)ccc2c1=O)Nc1ccc2nncn2c1 [Compound 3C] | > 10 | > 10 |  |
| O=C(Cn1nc(N2CC(F)(F)C2)c2cc(C(F)(F)F)ccc2c1=O)Nc1ccncn1 [Compound 3D] | 3.32 | > 10 | 288.6 |
| O=C(Cn1nc(N2CC(F)(F)C2)c2cc(C(F)(F)F)ccc2c1=O)Nc1ccnnc1 [Compound 3E] | 9.61 | > 10 | 221.6 |
| C[C@]1(O)C[C@@H](NC(=O)Cn2nc(N3CC(F)(F)C3)c3cc(C(F)(F)F)ccc3c2=O)C1 [Compound 3F] | 3.09 | > 10 | 213.3 |
| CC(C)n1ccc(NC(=O)Cn2nc(N3CC(F)(F)C3)c3cc(C(F)(F)F)ccc3c2=O)n1 [Compound 3G] | > 10 | > 10 | 220 |
| O=C(Cn1nc(N2CC(F)(F)C2)c2cc(Br)ccc2c1=O)Nc1ccncn1 [Compound 4G] | 4.29 | > 10 | 286.8 |
| CN(C)c1nn(CC(=O)N[C@H]2C[C@@](C)(O)C2)c(=O)c2ccc(Br)cc12 [Compound 5C] | 0.03 | > 10 | 193.2 |
| CN(C)c1nn(CC(=O)Nc2ccc3nncn3c2)c(=O)c2ccc(Br)cc12 [Compound 5D] | 0.05 | > 10 | > 300 |
| CN(C)c1nn(CC(=O)Nc2ccc(=O)n(C)n2)c(=O)c2ccc(Br)cc12 [Compound 5E] | 0.17 | > 10 | 246.8 |
| CN(C)CCN(C)c1nn(CC(=O)Nc2ccc3nncn3c2)c(=O)c2ccc(C(F)(F)F)cc12 [Compound 6C] | > 10 | > 10 |  |
| COCCN(C)c1nn(CC(=O)Nc2ccc3nncn3c2)c(=O)c2ccc(C(F)(F)F)cc12 [Compound 7C] | 5.63 | > 10 |  |

Now from value to molecule:

| IC50 (IL-1β) [µM] | EC50 (TNF) [µM] | melting point [°C] | SMILES |
| --- | --- | --- | --- |
| 0.12 | > 10 | 184.8 | CN(C)c1nn(CC(=O)N[C@H]2C[C@@](C)(O)C2)c(=O)c2ccc(Cl)cc12 [Compound 8H] |
| 0.31 | > 10 | 295.3 | CN(C)c1nn(CC(=O)Nc2ccc3nncn3c2)c(=O)c2ccc(Cl)cc12 [Compound 8I] |
| 0.84 | > 10 | 253.4 | CN(C)c1nn(CC(=O)Nc2ccc(=O)n(C)n2)c(=O)c2ccc(Cl)cc12 [Compound 8J] |
| > 10 | > 10 | 173.1 | CN(C)c1nn(CC(=O)N[C@H]2C[C@@](C)(O)C2)c(=O)c2cc(Cl)ccc12 [Compound 9H] |
| > 10 | > 10 | 213.2 | CN(C)c1nn(CC(=O)Nc2ccc(=O)n(C)n2)c(=O)c2cc(Cl)ccc12 [Compound 9I] |
| > 10 | > 10 | > 300 | CN(C)c1nn(CC(=O)Nc2ccc3nncn3c2)c(=O)c2cc(Cl)ccc12 [Compound 9J] |
| 0.13 | > 10 | 270.3 | CN(C)c1nn(CC(=O)Nc2ccc3nncn3n2)c(=O)c2ccc(Cl)cc12 [Compound 10A] |
| 0.05 | > 10 | 231.6 | CN(C)c1nn(CC(=O)Nc2ccc3nncn3n2)c(=O)c2ccc(Br)cc12 [Compound 11A] |
